Here are results for one compound from ChEMBL document CHEMBL1759890, “3,5-Disubstituted-indole-7-carboxamides: the discovery of a novel series of potent, selective inhibitors of IKK-β” (Bioorg Med Chem Lett, 2011).

Experiment [1] concerns the target Casein kinase I isoform epsilon (Homo sapiens, UniProt P49674). The experiment in a line: Binding affinity to CSNK1eplison assessed as dissociation constant.
The target of experiment [2] is T1, Inhibitor of nuclear factor kappa-B kinase subunit epsilon (Homo sapiens, UniProt Q14164).
T1 sequence (Q14164 whole entry): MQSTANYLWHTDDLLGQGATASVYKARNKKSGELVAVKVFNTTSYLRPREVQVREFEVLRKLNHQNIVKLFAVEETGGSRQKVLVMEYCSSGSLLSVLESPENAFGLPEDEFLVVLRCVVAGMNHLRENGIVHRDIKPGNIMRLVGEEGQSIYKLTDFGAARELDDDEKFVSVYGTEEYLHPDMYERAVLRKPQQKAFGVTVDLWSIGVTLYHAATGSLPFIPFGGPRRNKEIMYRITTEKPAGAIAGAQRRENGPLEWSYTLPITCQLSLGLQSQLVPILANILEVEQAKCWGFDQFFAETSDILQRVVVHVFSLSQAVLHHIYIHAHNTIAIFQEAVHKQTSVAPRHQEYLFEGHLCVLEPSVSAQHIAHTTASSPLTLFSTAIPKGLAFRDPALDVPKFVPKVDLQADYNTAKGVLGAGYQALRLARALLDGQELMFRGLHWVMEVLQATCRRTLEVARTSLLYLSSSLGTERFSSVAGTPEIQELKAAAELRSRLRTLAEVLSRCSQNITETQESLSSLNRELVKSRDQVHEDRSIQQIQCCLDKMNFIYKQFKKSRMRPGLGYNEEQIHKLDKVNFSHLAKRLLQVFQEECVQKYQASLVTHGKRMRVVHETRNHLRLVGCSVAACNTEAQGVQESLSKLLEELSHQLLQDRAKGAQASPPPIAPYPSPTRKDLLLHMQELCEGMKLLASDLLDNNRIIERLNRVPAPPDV
Kind of experiment: Inhibition of IKK-epsilon.

For experiment [3], the target named is Tyrosine-protein kinase BTK (Homo sapiens, UniProt Q06187). Kind of experiment: Inhibition of BTK.
Sequence of Tyrosine-protein kinase BTK (Q06187 whole entry): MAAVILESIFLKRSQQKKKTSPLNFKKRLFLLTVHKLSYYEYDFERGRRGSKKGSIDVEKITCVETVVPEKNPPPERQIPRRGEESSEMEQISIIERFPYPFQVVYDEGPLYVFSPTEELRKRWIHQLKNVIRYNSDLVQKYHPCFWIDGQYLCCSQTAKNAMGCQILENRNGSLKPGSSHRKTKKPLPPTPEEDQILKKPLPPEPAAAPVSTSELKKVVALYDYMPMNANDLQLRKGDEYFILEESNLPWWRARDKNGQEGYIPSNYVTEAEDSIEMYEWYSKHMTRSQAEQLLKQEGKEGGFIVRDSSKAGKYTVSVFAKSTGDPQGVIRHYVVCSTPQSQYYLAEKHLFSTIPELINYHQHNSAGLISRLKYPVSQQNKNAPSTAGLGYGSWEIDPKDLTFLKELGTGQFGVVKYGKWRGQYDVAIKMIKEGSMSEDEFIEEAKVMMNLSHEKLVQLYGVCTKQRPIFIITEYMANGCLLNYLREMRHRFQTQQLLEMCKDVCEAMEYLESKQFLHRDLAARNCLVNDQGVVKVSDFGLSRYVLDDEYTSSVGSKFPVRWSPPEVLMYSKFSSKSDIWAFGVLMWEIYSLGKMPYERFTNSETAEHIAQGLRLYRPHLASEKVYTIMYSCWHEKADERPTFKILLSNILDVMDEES
Experiment [4] addresses T2, Inhibitor of nuclear factor kappa-B kinase subunit beta (Homo sapiens, UniProt O14920).
T2 sequence (O14920 whole entry): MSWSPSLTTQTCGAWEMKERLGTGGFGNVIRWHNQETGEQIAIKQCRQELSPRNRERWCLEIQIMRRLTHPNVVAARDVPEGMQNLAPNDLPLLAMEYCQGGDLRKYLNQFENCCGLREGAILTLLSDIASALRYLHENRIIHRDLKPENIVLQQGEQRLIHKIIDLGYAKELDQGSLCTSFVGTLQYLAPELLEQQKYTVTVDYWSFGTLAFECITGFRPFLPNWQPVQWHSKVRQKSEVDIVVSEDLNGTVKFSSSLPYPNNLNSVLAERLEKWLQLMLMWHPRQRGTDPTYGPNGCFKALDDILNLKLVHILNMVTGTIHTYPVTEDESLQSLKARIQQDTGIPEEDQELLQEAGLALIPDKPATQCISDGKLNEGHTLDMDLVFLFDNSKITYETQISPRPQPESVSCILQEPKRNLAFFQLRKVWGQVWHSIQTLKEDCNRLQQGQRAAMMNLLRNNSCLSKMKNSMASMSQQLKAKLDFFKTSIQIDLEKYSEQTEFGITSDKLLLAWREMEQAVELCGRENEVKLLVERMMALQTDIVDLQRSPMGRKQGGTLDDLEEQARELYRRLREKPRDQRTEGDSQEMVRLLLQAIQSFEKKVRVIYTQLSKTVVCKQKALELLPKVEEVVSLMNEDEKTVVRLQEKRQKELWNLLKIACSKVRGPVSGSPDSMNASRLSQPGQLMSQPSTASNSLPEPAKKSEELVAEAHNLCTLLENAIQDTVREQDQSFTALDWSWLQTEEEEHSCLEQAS
Kind of experiment: Inhibition of IKK-beta in human A549 cells assessed as TNF-alpha-induced Nuclear factor-kappa-B nuclear translocation.

Experiment [5] has as its target T3, Receptor-type tyrosine-protein kinase FLT3 (Homo sapiens, UniProt P36888).
T3 sequence (P36888 whole entry): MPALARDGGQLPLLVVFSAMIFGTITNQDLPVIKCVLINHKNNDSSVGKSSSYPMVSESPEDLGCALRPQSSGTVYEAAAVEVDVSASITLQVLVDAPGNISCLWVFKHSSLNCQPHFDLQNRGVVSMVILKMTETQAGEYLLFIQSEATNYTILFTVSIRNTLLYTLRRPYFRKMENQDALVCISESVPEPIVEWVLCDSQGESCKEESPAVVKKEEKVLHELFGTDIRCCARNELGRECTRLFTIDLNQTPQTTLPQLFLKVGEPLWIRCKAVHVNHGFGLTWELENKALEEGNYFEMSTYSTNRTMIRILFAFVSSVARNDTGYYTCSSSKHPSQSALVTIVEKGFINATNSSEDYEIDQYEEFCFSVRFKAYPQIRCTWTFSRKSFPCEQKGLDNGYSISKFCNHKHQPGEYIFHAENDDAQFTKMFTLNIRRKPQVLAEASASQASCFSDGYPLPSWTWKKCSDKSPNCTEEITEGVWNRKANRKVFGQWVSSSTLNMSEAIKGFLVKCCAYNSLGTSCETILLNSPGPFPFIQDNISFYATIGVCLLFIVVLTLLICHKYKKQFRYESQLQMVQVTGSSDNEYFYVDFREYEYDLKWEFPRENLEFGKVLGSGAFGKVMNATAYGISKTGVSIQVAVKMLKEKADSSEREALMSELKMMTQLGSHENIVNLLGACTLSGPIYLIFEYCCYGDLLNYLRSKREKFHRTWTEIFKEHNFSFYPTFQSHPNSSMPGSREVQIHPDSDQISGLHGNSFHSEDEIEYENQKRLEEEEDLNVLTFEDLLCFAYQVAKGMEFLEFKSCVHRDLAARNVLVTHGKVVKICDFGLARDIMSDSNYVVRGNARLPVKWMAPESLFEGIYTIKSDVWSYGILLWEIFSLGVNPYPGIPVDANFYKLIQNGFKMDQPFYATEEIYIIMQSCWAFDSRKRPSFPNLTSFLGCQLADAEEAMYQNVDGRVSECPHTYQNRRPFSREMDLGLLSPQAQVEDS
The experiment in a line: Binding affinity to FLT3 assessed as dissociation constant.

Sequence of Casein kinase I isoform epsilon (P49674 whole entry, canonical isoform): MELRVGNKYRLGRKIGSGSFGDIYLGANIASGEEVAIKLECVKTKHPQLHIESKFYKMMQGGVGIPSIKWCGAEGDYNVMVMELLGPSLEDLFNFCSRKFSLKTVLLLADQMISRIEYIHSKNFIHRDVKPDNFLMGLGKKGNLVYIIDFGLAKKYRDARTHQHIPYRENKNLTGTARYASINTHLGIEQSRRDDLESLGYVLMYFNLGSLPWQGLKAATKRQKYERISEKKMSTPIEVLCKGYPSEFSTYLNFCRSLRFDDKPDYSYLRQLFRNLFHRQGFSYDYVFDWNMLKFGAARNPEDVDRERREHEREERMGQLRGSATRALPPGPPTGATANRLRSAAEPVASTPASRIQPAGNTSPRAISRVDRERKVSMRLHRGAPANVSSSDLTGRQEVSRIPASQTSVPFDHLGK

Take `CCCS(=O)(=O)N1CCC(c2c[nH]c3c(C(N)=O)cc(-c4ccccc4)cc23)CC1`: the Kd in experiment [1] was 1580 nM; in experiment [5] it was 1260 nM. Further, the values for the IC50 in experiment [2], in experiment [3] and in experiment [4] were > 3160 nM, 1580 nM and 158 nM, respectively.
